{"source": "patent US12077501B2", "about": "“Compounds and compositions for intracellular delivery of agents” (ModernaTX, Inc., priority 2017, dated 2024)", "key": {"[1]": {"test": "Particle size and polydispersity index of nanoparticle compositions (Zetasizer Nano ZS)", "format": "physicochemical", "settings": "row marked **: Formulated with lipid:Chol:DOPE:PEG 1 30:38.5:30:1.5", "procedure": "A Zetasizer Nano ZS (Malvem Instruments Ltd, Malvem, Worcestershire, UK) can be used to determine the particle size, the polydispersity index (PDI) and the zeta potential of the nanoparticle compositions in 1×PBS in determining particle size and 15 mM PBS in determining zeta potential."}, "[2]": {"test": "Encapsulation efficiency of RNA (QUANT-IT RIBOGREEN RNA assay)", "format": "physicochemical", "settings": "row marked **: Formulated with lipid:Chol:DOPE:PEG 1 30:38.5:30:1.5", "procedure,_shortened": "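RiboGreen fluorescence (ex about 480, em about 520 nm) compares nanoparticle samples left intact versus disrupted with 2% Triton X-100 (15 min, 37° C). Samples are first brought to roughly 5 μg/mL in 10 mM Tris-HCl, 1 mM EDTA, pH 7.5; percent free RNA equals the blank-corrected intact/disrupted signal ratio.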"}, "[3]": {"test": "Purity at start and after storage for 65 h at 25 °C or 37 °C", "format": "physicochemical"}, "[4]": {"test_system": "hepatocytes and Kupffer cells", "test": "Mouse liver immunohistochemistry (IHC) with GFP mRNA (FIGS. 11A, 11B)", "format": "in vivo", "settings": "LDLR knockout mouse liver, 8h after intravenous administration, 0.5 mpk (FIG. 11B), in contrast to MC3", "from_the_text": "FIGS. 11A and 11B are a pair of images comparing the results of a mouse liver immunohistochemistry (IHC) using mRNA expressing green fluorescent protein (GFP) after administration of nanoparticle compositions containing Compound 4 and MC3."}, "hEPO expression [5]": {"test_system": "hEPO expression", "test": "hEPO expression in CD-1 mice compared with MC3", "format": "in vivo", "procedure,_shortened": "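Dosing: 0.5 mpk nanoparticle composition, CD-1 mice. Measured: hEPO expression.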"}, "[6]": {"test": "Lipid clearance: % dose remaining in liver of CD-1 mice", "format": "in vivo", "settings": "intravenous, 0.5 mg/kg, CD-1 mouse, Table 8a", "procedure,_shortened": "(§1)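 Expression and clearance data were obtained for nanoparticle compositions with various test compounds, run in parallel with an MC3 composition.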"}, "hEPO expression [7]": {"test_system": "hEPO expression", "test": "hEPO (miR126 + miR142) mRNA expression, Tables 8b-8e", "format": "in vivo"}, "[8]": {"test": "Lipid clearance: % dose remaining, Tables 7c and 8b-8e (species not given)", "format": "in vivo", "procedure,_shortened": "as §1"}, "hEPO expression [9]": {"test_system": "hEPO expression", "test": "hEPO expression in Cynomolgus monkeys", "format": "in vivo", "settings": "0.05 mg/kg", "procedure": "Nanoparticle compositions of the disclosure, including an mRNA encoding hEPO and comprising a miR binding site, were administered to Cynomolgus monkeys at a dose of 0.05 mg/kg via a 60 min intravenous infusion."}, "[10]": {"test": "Characteristics of nanoparticle compositions formulated with PEG-DMG or PEG 1 over 4 weeks", "format": "physicochemical", "procedure": "Formulations were prepared according to Table 13 and included an mRNA encoding hEPO and the particle size, polydispersity index and encapsulation efficiency were recorded on day 1 (week 1), day 8 (week 2), day 15 (week 3), and day 22 (week 4), of the study."}, "hEPO": {"test_system": "hEPO", "test": "hEPO expression in rats after i.v. administration of nanoparticle compositions (FIGS. 8A, 8B)", "format": "in vivo, rat", "settings": "rats (FIGS. 8A and 8B)", "from_the_text": "PBS (phosphate buffered saline) is used as control. FIG. 8A compares the hEPO concentration after administration of nanoparticle compositions containing Compound 23, Compound 11, KL22, and MC3 at 2 mpk, i.v. administration. […] FIG. 8B illustrates the results of a dose response study using Compound 20, KL22, and MC3 at dose of 0.2, 0.5 and 1 mpk. […] In FIG. 8A, the numbers 1-5 refer to compositions containing the following: 1: Compound 23, 2: Compound 11, 3: KL22; 4: MC3; 5: PBS. In FIG. 8B, the numbers […] refer to compositions containing the following: 1: Compound 20, 0.2 mpk; 2: Compound 20, 0.5 mpk; 3: Compound 20, 1 mpk; 4: KL22, 0.2 mpk; 5: KL22, 0.5 mpk; 6: KL22, 1 mpk; 7: MC3, 0.2 mpk; 8: MC3, 0.5 mpk; 9: MC3, 1 mpk; 10: PBS."}, "rats": {"test_system": "rats", "test": "Tolerability / toxicity in rats (FIGS. 8A, 8B)", "format": "in vivo", "settings": "2 mg/kg dose"}, "LDL levels": {"test_system": "LDL levels", "test": "LDL levels in LDLr-/- mice relative to untreated", "format": "in vivo", "settings": "intravenous, Table 7b"}, "[11]": {"settings": "Week 1, 40:20:38.5:1.5 Lipid:DOPE:Chol:PEG 1"}, "[12]": {"settings": "Week 1, 40:20:38.5:1.5 Lipid:DOPE:Chol:PEG-DMG"}, "[13]": {"settings": "Week 2, 40:20:38.5:1.5 Lipid:DOPE:Chol:PEG 1"}, "[14]": {"settings": "Week 2, 40:20:38.5:1.5 Lipid:DOPE:Chol:PEG-DMG"}, "[15]": {"settings": "Week 3, 40:20:38.5:1.5 Lipid:DOPE:Chol:PEG 1"}, "[16]": {"settings": "Week 3, 40:20:38.5:1.5 Lipid:DOPE:Chol:PEG-DMG"}, "[17]": {"settings": "Week 4, 40:20:38.5:1.5 Lipid:DOPE:Chol:PEG 1"}, "[18]": {"settings": "Week 4, 40:20:38.5:1.5 Lipid:DOPE:Chol:PEG-DMG"}}}
{"compound": "CCCCCCCCCN(CCCCCCCCC)CCN(CCCCCCCCC)CC(=O)N1CCN(C(=O)CN(CCCCCCCCC)CCCCCCCCC)CC1", "note": "[Compound 4, 2-(Dinonylamino)-1-(4-(N-(2-(dinonylamino)ethyl)-N-nonylglycyl)piperazin-1-yl)ethan-1-one]", "values": [{"measurement": "PDI", "setting": "[1]; Table 1e", "value": 0.19}, {"measurement": "Size (nm)", "setting": "[1]; Table 1e", "value": 99.2, "unit": "nm"}, {"measurement": "PDI", "setting": "[1]; Table 1f", "value": 0.21}, {"measurement": "Size (nm)", "setting": "[1]; Table 1f", "value": 111.5, "unit": "nm"}, {"measurement": "PDI", "setting": "[1]; Table 1d", "value": 0.23}, {"measurement": "Size (nm)", "setting": "[1]; Table 1d", "value": 101.5, "unit": "nm"}, {"measurement": "EE (%)", "setting": "[2]; Table 1e", "value": 98.6, "unit": "%"}, {"measurement": "EE (%)", "setting": "[2]; Table 1f", "value": 98.8, "unit": "%"}, {"measurement": "EE (%)", "setting": "[2]; Table 1d", "value": 99.1, "unit": "%"}, {"measurement": "Purity % 25° C. no shaking t = 65 h", "setting": "[3]; after storage for 65 h at 25° C., no shaking", "value": 99, "unit": "%"}, {"measurement": "Purity % 37° C. shaking t = 65 h", "setting": "[3]; after storage for 65 h at 37° C., shaking", "value": 99, "unit": "%"}, {"measurement": "Purity % t = 0 h", "setting": "[3]; beginning of the study, 25° C.", "value": 98, "unit": "%"}, {"measurement": "GFP protein expression in liver cell types (IHC)", "setting": "[4]", "value": "less protein expression in Kupffer cells"}, {"measurement": "AUC (p/s*h) CD-1 mice 0.5 mpk", "setting": "hEPO expression [5]; intramuscular, title: 0.01 mg/kg, Table 7f", "value": 366551, "unit": "p/s*h"}, {"measurement": "AUC (p/s*h) CD-1 mice 0.5 mpk", "setting": "hEPO expression [5]; subcutaneous, 0.5 mg/kg, Table 7g", "value": 859874, "unit": "p/s*h"}, {"measurement": "% Dose Remaining 24 hr", "setting": "[6]", "value": 60.36, "unit": "%"}, {"measurement": "AUC", "setting": "hEPO expression [7]; Table 8b", "value": "6.7e+07", "unit": "pg·h/mL"}, {"measurement": "AUC", "setting": "hEPO expression [7]; Table 8c", "value": "8.47e+07", "unit": "pg·h/mL"}, {"measurement": "AUC", "setting": "hEPO expression [7]; Table 8d", "value": "1.83e+09", "unit": "pg·h/mL"}, {"measurement": "AUC (mIU/mL*h)", "setting": "hEPO expression [7]; lipid:Chol:PEG 1 50:47.5:2.5, Table 8e", "value": "2.76E+08", "unit": "mIU/mL*h"}, {"measurement": "% Dose Remaining (liver, 24 h)", "setting": "[8]; Table 8b", "value": 39.23, "unit": "%"}, {"measurement": "% Dose Remaining (liver, 24 h)", "setting": "[8]; Table 8c", "value": 37.05, "unit": "%"}, {"measurement": "% Dose Remaining (liver, 24 h)", "setting": "[8]; Table 8d", "value": 43.02, "unit": "%"}, {"measurement": "levels of hEPO expression compared to MC3", "setting": "hEPO expression [9]", "value": "improved levels of hEPO expressions"}, {"measurement": "EE (%)", "setting": "[10]; [11]", "value": 98, "unit": "%"}, {"measurement": "PDI", "setting": "[10]; [11]", "value": 0.22}, {"measurement": "Size (nm)", "setting": "[10]; [11]", "value": 101.5, "unit": "nm"}, {"measurement": "EE (%)", "setting": "[10]; [12]", "value": 99, "unit": "%"}, {"measurement": "PDI", "setting": "[10]; [12]", "value": 0.23}, {"measurement": "Size (nm)", "setting": "[10]; [12]", "value": 79.9, "unit": "nm"}, {"measurement": "EE (%)", "setting": "[10]; [13]", "value": 97, "unit": "%"}, {"measurement": "PDI", "setting": "[10]; [13]", "value": 0.21}, {"measurement": "Size (nm)", "setting": "[10]; [13]", "value": 104.1, "unit": "nm"}, {"measurement": "EE (%)", "setting": "[10]; [14]", "value": 99, "unit": "%"}, {"measurement": "PDI", "setting": "[10]; [14]", "value": 0.21}, {"measurement": "Size (nm)", "setting": "[10]; [14]", "value": 79.9, "unit": "nm"}, {"measurement": "EE (%)", "setting": "[10]; [15]", "value": 97, "unit": "%"}, {"measurement": "PDI", "setting": "[10]; [15]", "value": 0.2}, {"measurement": "Size (nm)", "setting": "[10]; [15]", "value": 100.4, "unit": "nm"}, {"measurement": "EE (%)", "setting": "[10]; [16]", "value": 99, "unit": "%"}, {"measurement": "PDI", "setting": "[10]; [16]", "value": 0.22}, {"measurement": "Size (nm)", "setting": "[10]; [16]", "value": 77.3, "unit": "nm"}, {"measurement": "EE (%)", "setting": "[10]; [17]", "value": 97, "unit": "%"}, {"measurement": "PDI", "setting": "[10]; [17]", "value": 0.2}, {"measurement": "Size (nm)", "setting": "[10]; [17]", "value": 101.9, "unit": "nm"}, {"measurement": "EE (%)", "setting": "[10]; [18]", "value": 99, "unit": "%"}, {"measurement": "PDI", "setting": "[10]; [18]", "value": 0.21}, {"measurement": "Size (nm)", "setting": "[10]; [18]", "value": 73.6, "unit": "nm"}]}
{"compound": "CCCCCCCCCCCCN(CCCCCCCCCCCC)CCN(CCCCCCCCCCCC)CCN1CCN(CCN(CCCCCCCCCCCC)CCCCCCCCCCCC)CC1", "note": "[KL22, N1-[2-(didodecylamino)ethyl]-N1,N4,N4-tridodecyl-1,4-piperazinediethanamine, reference compound]", "values": [{"measurement": "hEPO expression levels in rats", "setting": "hEPO", "value": "do not express hEPO in rats"}, {"measurement": "toxicity", "setting": "rats", "value": "toxic"}, {"measurement": "LDL levels lipid/untreated LDLr−/− mice 0.5 mpk, LDLr", "setting": "LDL levels", "value": 0.51}]}
